Assay results as given in US20140205537A1, “LRRK2 INHIBITORS” (ZENOBIA THERAPEUTICS, INC., priority 2011, published 2014).

Legend:
Format in all cases: biochemical
ABL1 = ABL1 (Homo sapiens, UniProt P00519); assay: Kinase selectivity panel: ABL1
ALK4 = ALK4 (Homo sapiens, UniProt P36896); assay: Kinase selectivity panel: ALK4
BRAF = BRAF (Homo sapiens, UniProt P15056); assay: Kinase selectivity panel: BRAF
CDK1/cyclinB = CDK1/cyclinB (Homo sapiens, UniProt P06493); assay: Kinase selectivity panel: CDK1/cyclinB
CHEK1 = biological target: T1, CHEK1 (Homo sapiens, UniProt O14757); assay: Kinase selectivity panel: CHEK1
T1 sequence (O14757 1-476): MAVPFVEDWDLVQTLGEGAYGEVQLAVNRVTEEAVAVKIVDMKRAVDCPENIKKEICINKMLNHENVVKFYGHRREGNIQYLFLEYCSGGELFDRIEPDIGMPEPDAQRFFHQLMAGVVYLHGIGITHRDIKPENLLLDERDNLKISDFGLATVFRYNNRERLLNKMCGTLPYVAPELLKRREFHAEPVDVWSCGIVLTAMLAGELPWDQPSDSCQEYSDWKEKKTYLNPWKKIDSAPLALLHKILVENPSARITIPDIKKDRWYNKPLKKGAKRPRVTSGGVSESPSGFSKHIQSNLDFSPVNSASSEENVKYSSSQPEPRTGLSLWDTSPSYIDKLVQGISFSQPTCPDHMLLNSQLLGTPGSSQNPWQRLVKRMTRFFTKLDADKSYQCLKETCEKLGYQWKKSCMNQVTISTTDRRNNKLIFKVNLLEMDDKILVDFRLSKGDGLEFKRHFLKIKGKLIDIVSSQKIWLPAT

CK2 alpha 1 = CK2 alpha 1 (Homo sapiens, UniProt P68400); assay: Kinase selectivity panel: CK2 alpha 1
HER2 = HER2 (Homo sapiens, UniProt P04626); assay: Kinase selectivity panel: HER2
IRAK4 = biological target: T2, IRAK4 (Homo sapiens, UniProt Q9NWZ3); assay: Kinase selectivity panel: IRAK4
T2 sequence (Q9NWZ3 1-460): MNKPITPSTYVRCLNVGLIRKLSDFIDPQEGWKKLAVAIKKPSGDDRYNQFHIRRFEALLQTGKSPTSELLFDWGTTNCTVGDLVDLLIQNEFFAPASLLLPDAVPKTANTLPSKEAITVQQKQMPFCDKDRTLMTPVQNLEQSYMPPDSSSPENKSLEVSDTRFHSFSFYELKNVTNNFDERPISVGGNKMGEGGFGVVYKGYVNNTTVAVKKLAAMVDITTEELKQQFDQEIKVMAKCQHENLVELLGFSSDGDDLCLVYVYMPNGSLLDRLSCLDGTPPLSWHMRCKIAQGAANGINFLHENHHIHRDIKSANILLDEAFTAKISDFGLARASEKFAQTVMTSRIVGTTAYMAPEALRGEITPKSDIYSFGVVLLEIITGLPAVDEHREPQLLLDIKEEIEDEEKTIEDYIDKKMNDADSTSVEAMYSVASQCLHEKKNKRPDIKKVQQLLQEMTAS

FLT3 = FLT3 (Homo sapiens, UniProt P36888); assay: Kinase selectivity panel: FLT3
IGF1R = IGF1R (Homo sapiens, UniProt P08069); assay: Kinase selectivity panel: IGF1R
INSR = INSR (Homo sapiens, UniProt P06213); assay: Kinase selectivity panel: INSR
JAK3 = JAK3 (Homo sapiens, UniProt P52333); assay: Kinase selectivity panel: JAK3
MARK2 = MARK2 (Homo sapiens, UniProt Q7KZI7); assay: Kinase selectivity panel: MARK2
ERK2 = ERK2 (Homo sapiens, UniProt P28482); assay: Kinase selectivity panel: ERK2
JNK1 = JNK1 (Homo sapiens, UniProt P45983); assay: Kinase selectivity panel: JNK1
cMet = cMet (Homo sapiens, UniProt P08581); assay: Kinase selectivity panel: cMet
PIM1 = PIM1 (Homo sapiens, UniProt P11309); assay: Kinase selectivity panel: PIM1
ROCK1 = ROCK1 (Homo sapiens, UniProt Q13464); assay: Kinase selectivity panel: ROCK1
RSK2 = RSK2 (Homo sapiens, UniProt P51812); assay: Kinase selectivity panel: RSK2
P70S6K = P70S6K (Homo sapiens, UniProt P23443); assay: Kinase selectivity panel: P70S6K
SRC = SRC (Homo sapiens, UniProt P12931); assay: Kinase selectivity panel: SRC
SYK = SYK (Homo sapiens, UniProt P43405); assay: Kinase selectivity panel: SYK
Tie2 = Tie2 (Homo sapiens, UniProt Q02763); assay: Kinase selectivity panel: Tie2

MARK2, sequence (Q7KZI7 whole entry, species assumed): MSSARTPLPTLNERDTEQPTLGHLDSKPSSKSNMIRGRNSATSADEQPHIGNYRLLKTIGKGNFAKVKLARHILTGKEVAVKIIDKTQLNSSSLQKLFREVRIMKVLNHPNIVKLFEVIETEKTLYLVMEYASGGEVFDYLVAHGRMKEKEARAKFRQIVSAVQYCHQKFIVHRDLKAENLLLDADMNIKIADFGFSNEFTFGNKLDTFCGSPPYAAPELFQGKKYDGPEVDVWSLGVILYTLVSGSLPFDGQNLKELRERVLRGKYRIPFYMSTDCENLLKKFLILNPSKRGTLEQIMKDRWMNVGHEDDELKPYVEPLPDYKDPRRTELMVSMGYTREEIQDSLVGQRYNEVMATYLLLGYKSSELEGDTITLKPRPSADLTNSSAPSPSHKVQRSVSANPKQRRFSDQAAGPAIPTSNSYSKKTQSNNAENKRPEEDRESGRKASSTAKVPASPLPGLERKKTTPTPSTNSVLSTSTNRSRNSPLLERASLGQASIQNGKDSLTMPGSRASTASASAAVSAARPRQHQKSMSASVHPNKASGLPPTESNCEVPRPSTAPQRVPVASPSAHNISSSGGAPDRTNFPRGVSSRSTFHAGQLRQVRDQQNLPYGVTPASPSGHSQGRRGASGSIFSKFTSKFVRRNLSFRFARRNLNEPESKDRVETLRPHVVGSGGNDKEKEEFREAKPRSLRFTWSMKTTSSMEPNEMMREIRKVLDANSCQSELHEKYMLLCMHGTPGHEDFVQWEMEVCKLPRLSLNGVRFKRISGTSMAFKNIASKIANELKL
ABL1, sequence (P00519 whole entry, species assumed): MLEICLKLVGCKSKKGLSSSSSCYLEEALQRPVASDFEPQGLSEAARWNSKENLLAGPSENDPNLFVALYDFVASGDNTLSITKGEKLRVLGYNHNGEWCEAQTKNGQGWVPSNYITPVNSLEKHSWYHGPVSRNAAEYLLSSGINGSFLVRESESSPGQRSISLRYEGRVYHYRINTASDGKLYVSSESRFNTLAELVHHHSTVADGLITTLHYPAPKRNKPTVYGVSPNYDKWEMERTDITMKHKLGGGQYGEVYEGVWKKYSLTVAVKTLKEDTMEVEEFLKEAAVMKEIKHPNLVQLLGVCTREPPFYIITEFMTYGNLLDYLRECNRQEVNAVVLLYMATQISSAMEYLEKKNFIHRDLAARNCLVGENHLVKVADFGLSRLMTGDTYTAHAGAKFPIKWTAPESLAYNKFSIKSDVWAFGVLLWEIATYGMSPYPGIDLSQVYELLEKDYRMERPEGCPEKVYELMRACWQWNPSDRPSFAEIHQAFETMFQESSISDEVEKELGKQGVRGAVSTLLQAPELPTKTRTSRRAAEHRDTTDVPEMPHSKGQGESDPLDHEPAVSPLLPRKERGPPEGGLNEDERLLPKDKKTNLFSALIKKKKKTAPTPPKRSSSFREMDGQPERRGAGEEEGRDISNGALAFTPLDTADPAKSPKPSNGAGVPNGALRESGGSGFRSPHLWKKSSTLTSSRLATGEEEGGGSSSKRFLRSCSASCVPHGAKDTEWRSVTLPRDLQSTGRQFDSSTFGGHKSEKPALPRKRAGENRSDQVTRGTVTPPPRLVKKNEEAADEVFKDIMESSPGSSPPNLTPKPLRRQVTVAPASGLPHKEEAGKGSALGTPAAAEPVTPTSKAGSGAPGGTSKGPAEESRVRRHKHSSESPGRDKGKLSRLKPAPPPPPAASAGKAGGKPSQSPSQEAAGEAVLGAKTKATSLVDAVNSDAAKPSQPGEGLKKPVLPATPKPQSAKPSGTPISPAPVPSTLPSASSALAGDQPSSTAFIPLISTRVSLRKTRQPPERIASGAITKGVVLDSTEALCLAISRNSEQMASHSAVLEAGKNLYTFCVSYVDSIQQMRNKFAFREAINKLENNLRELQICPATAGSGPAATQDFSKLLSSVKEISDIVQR
ALK4, sequence (P36896 24-505, species assumed): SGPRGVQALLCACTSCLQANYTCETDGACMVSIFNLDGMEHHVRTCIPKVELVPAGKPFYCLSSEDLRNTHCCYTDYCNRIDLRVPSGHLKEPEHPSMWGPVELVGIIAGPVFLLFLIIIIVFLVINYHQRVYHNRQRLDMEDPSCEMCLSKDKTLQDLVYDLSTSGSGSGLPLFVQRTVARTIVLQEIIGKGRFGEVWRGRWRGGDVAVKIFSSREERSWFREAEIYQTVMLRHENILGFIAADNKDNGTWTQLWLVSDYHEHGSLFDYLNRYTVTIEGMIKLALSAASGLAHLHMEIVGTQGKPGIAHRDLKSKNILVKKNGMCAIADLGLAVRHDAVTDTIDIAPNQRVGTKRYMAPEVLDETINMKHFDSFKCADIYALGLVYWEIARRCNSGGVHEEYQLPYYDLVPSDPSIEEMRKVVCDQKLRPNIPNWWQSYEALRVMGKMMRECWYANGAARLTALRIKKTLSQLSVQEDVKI
JNK1, sequence (P45983 whole entry, species assumed): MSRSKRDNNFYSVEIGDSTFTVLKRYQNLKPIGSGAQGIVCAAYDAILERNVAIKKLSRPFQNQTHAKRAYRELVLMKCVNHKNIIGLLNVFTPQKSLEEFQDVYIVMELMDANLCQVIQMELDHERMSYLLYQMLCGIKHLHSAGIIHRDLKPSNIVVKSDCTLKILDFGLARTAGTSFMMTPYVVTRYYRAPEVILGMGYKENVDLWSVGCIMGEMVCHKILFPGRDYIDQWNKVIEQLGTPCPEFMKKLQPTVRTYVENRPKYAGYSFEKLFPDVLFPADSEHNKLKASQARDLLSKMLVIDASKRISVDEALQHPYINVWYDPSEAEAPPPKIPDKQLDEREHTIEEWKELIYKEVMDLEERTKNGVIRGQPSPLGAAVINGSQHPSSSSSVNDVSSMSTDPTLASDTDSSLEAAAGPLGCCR
IGF1R, sequence (P08069 31-1367, species assumed): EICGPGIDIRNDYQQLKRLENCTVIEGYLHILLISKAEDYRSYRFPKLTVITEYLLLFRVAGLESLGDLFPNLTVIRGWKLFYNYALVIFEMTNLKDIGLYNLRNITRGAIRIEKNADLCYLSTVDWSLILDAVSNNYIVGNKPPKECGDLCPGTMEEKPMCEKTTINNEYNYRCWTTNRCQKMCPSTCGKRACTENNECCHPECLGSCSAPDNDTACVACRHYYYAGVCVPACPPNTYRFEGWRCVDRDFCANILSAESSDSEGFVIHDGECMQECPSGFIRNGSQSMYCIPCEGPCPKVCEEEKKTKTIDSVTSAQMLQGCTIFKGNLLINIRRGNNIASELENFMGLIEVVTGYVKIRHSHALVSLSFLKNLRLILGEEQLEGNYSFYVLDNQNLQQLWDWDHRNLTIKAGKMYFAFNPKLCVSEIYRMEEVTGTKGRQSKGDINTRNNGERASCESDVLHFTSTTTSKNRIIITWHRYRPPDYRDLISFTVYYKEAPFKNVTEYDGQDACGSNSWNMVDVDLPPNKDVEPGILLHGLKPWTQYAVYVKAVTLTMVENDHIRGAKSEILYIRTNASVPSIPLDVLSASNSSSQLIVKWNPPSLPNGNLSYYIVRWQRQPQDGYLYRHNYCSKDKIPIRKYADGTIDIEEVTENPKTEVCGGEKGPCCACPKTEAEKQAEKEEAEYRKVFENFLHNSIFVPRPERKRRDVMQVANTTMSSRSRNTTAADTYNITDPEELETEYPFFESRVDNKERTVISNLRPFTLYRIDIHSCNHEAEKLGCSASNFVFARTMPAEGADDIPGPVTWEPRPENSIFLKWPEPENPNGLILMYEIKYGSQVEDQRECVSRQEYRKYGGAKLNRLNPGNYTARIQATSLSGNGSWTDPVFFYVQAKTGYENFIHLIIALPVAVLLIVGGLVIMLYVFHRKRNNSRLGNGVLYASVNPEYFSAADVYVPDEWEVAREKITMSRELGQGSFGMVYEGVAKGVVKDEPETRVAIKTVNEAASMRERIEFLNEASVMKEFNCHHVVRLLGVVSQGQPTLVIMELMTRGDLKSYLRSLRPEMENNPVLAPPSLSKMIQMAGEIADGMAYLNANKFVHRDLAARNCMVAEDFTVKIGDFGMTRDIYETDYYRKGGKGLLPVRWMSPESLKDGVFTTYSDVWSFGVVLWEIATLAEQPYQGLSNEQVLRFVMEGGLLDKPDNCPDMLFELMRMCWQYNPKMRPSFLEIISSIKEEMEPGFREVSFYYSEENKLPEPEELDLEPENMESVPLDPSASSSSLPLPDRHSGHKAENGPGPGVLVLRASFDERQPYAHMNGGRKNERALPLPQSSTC
PIM1, sequence (P11309 whole entry, species assumed): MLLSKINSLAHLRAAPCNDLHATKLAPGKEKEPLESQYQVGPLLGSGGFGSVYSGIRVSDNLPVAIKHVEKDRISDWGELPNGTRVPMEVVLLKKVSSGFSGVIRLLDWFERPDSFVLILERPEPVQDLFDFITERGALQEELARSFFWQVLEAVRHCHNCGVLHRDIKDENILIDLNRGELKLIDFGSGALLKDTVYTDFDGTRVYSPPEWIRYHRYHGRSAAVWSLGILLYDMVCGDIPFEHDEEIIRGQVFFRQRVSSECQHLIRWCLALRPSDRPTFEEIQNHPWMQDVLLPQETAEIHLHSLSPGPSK
CK2 alpha 1, sequence (P68400 whole entry): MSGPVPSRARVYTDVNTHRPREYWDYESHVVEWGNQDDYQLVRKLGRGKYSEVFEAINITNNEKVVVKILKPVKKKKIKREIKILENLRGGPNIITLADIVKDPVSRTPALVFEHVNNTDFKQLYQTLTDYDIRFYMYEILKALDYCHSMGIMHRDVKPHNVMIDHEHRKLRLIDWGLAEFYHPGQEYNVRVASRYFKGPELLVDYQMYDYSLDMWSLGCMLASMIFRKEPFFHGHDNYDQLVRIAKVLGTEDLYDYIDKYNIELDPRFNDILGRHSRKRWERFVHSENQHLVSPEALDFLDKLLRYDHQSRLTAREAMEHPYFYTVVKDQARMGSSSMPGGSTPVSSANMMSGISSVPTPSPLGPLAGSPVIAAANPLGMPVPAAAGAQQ

COc1ccc2c(c1)/C(=C/c1cnc(C3CCOCC3)[nH]1)C(=O)N2 [Compound 18, (3Z)-5-methoxy-3-[(2-tetrahydropyran-4-yl-1H-imidazol-5-yl)methylene]indolin-2-one]
IC50 (ABL1): > 10 µM | inhibition at 0.1 µM (ABL1; @0.1 uM): 5% | inhibition at 0.1 µM (ALK4): -3% | inhibition at 0.1 µM (BRAF): 18% | inhibition at 0.1 µM (CDK1/cyclinB): 0% | IC50 (CHEK1): > 10 µM | inhibition at 0.1 µM (CHEK1; @0.1 uM): 3% | inhibition at 0.1 µM (CK2 alpha 1): 6% | inhibition at 0.1 µM (HER2): 4% | IC50 (IRAK4): > 10 µM | inhibition at 0.1 µM (IRAK4; @0.1 uM): -1% | inhibition at 0.1 µM (FLT3): 8% | inhibition at 0.1 µM (IGF1R): 7% | inhibition at 0.1 µM (INSR): 4% | inhibition at 0.1 µM (JAK3): 2% | IC50 (MARK2): 7.94 µM | inhibition at 0.1 µM (MARK2; @0.1 uM): 5% | inhibition at 0.1 µM (ERK2): 8% | inhibition at 0.1 µM (JNK1): -5% | inhibition at 0.1 µM (cMet): 7% | inhibition at 0.1 µM (PIM1): -2% | inhibition at 0.1 µM (ROCK1): 1% | inhibition at 0.1 µM (RSK2): 3% | inhibition at 0.1 µM (P70S6K): 5% | inhibition at 0.1 µM (SRC): 13% | inhibition at 0.1 µM (SYK): 8% | inhibition at 0.1 µM (Tie2): -2%
